pEC50: −log10 of the molar value.
How the values were obtained:
HBV [1] = experiment: Anti-HBV assay in HepG2 2.2.15 cells; type: cell-based; details: for pEC50: Hepatitis B virus, HepG2 2.2.15, 144 h, read-out: EC50 anti-HBV activity
MT-4 cells = experiment: Cytotoxicity assay; type: cell-based; details: for cytotoxicity (in words): text: toward HepG2 cells, table head and method say MT-4
HBV [2] = details: relative to entecavir 1; ref 3a; cited from earlier work

Compound | pEC50 (HBV [1]) | cytotoxicity (in words) (MT-4 cells) | other results
C=C(CCO)Cn1cnc2c(=O)[nH]c(N)nc21 [Compound 6, 2-Amino-9-(4-hydroxy-2-methylenebutyl)-1H-purin-6(9H)-one] | < 6.00 | nor display any cytotoxicity | anti-HBV activity (in words) (HBV [1]; HepG2 2.2.15 cells): neither exhibit anti-HBV activity
Nc1nc2c(ncn2[C@H]2C[C@@H](CO)[C@H](O)C2)c(=O)[nH]1 [carbocyclic dG] | – | – | potency, times less than that of entecavir (1) (HBV [2]): 10 times
9-[Bis-O-(pivaloyoxymethyl)phosphorylmethoxy]allyl]guanine [Compound 8] | – | cytotoxicity toward HepG2 cells was also observed | –
CC(C)(C)C(=O)O [pivalic acid, reference compound] | – | – | concentration up to which no cytotoxicity was shown (MT-4 cells; in this assay system): > 100 µM
C=C1[C@H](CO)[C@@H](O)C[C@@H]1n1cnc2c(=O)[nH]c(N)nc21 [Entecavir, entecavir, reference compound] | 9.11 | – | –

— publication PMC7712530 (Nucleosides, nucleotides & nucleic acids, 2015)
